# In patent publication US9657037B2, “Pyrrole compounds with silicon incorporation” (COUNCIL OF SCIENTIFIC AND INDUSTRIAL RESEARCH, priority 2013, dated 2017):
# Read-outs that look alike come from different tables or passages of the source.
# Columns and labels:
# [1] = system: Mycobacterium tuberculosis H37Rv; conditions: according to literature (Biava. M et. al; J. Med. Chem 2008; 51; 3644); cited from earlier work
# [2] = system: Mycobacterium tuberculosis H37Rv; assay: Antitubercular activity, growth inhibition by Alamar-Blue / resazurin microtiter assay; assay type: cell-based
smiles,measurement,setting,value
"Cc1c(CN2CCN(C)CC2)cc(-c2ccc(Cl)cc2)n1-c1ccc(Cl)cc1 [BM212, 1,5-diaryl-2-methyl-3-(4-methylpiperazin-1-yl)methyl-pyrrole, reference compound]",MIC,[1],0.7 µg/mL
same,MIC,"[2]; H37Rv, 7H9-OADC media with 0.5% glycerol and 1 mg ml−1 tryptone, 37° C., 96-well plates, visual readout, read-out: MIC",1.56 µg/mL
"Cc1c(CN2CC[Si](C)(C)CC2)cc(-c2ccc(Cl)cc2)n1-c1ccc(Cl)cc1 [Compound 9, 1-((1,5-bis(4-chlorophenyl)-2-methyl-1H-pyrrol-3-yl)methyl)-4,4-dimethyl-1,4-azasilinane]",MIC,[2]; H37RV,0.04 µg/mL
"CSc1ccc(-c2cc(CN3CC[Si](C)(C)CC3)c(C)n2-c2ccc(F)cc2)cc1 [Compound 10a, 1-((1-(4-fluorophenyl)-2-methyl-5-(4-(methylthio)phenyl)-1H-pyrrol-3-yl)methyl)-4,4-dimethyl-1,4-azasilinane]",MIC,[2]; H37RV,0.08 µg/mL
"CSc1ccc(-c2c(CN3CC[Si](C)(C)CC3)cc(C)n2-c2ccc(F)cc2)cc1 [Compound 10b, 1-((1-(4-fluorophenyl)-5-methyl-2-(4-(methylthio)phenyl)-1H-pyrrol-3-yl)methyl)-4,4-dimethyl-1,4-azasilinane]",MIC,[2]; H37RV,1.56 µg/mL
"Cc1c(CN2CC[Si](C)(C)CC2)cc(-c2ccc(C(C)C)cc2)n1-c1ccc(Cl)cc1 [Compound 11a, 1-((1-(4-chlorophenyl)-5-(4-isopropylphenyl)-2-methyl-1H-pyrrol-3-yl)methyl)-4,4-dimethyl-1,4-azasilinane]",MIC,[2]; H37RV,0.04 µg/mL
"CSc1ccc(-c2cc(CN3CC[Si](C)(C)CC3)c(C)n2-c2ccc(C(C)C)cc2)cc1 [Compound 12a, 1-((1-(4-isopropylphenyl)-2-methyl-5-(4-(methylthio)phenyl)-1H-pyrrol-3-yl)methyl)-4,4-dimethyl-1,4-azasilinane]",MIC,[2]; H37RV,0.04 µg/mL
"CSc1ccc(-c2c(CN3CC[Si](C)(C)CC3)cc(C)n2-c2ccc(C(C)C)cc2)cc1 [Compound 12b, 1-((1-(4-isopropylphenyl)-5-methyl-2-(4-(methylthio)phenyl)-1H-pyrrol-3-yl)methyl)-4,4-dimethyl-1,4-azasilinane]",MIC,[2]; H37RV,1.25 µg/mL
"CCc1ccc(-n2c(-c3ccc(Cl)cc3)cc(CN3CC[Si](C)(C)CC3)c2C)cc1 [Compound 13, 1-((5-(4-chlorophenyl)-1-(4-ethylphenyl)-2-methyl-1H-pyrrol-3-yl)methyl)-4,4-dimethyl-1,4-azasilinane]",MIC,[2]; H37RV,0.08 µg/mL
"COc1ccc(-c2c(CN3CC[Si](C)(C)CC3)cc(C)n2-c2ccc(F)cc2)cc1 [Compound 14, 1-((1-(4-fluorophenyl)-2-(4-methoxyphenyl)-5-methyl-1H-pyrrol-3-yl)methyl)-4,4-dimethyl-1,4-azasilinane]",MIC,[2]; H37RV,3.12 µg/mL
"Cc1c(CN2CC[Si](C)(C)CC2)cc(-c2ccc(Cl)cc2)n1-c1ccccc1 [Compound 15, 1-((5-(4-chlorophenyl)-2-methyl-1-phenyl-1H-pyrrol-3-yl)methyl)-4,4-dimethyl-1,4-azasilinane]",MIC,[2]; H37RV,0.04 µg/mL
"CCc1ccc(-c2cc(CN3CC[Si](C)(C)CC3)c(C)n2-c2ccc(OC)cc2)cc1 [Compound 16, 1-((5-(4-ethylphenyl)-1-(4-methoxyphenyl)-2-methyl-1H-pyrrol-3-yl)methyl)-4,4-dimethyl-1,4-azasilinane]",MIC,[2]; H37RV,0.08 µg/mL
"Cc1ccc(-c2cc(CN3CC[Si](C)(C)CC3)c(C)n2-c2ccc(F)cc2)cc1 [Compound 17, 1-((1-(4-fluorophenyl)-2-methyl-5-(p-tolyl)-1H-pyrrol-3-yl)methyl)-4,4-dimethyl-1,4-azasilinane]",MIC,[2]; H37RV,0.04 µg/mL
"CCOc1ccc(-c2c(CN3CC[Si](C)(C)CC3)cc(C)n2-c2ccc(OC)cc2)cc1 [Compound 18, 1-((2-(4-ethoxyphenyl)-1-(4-methoxyphenyl)-5-methyl-1H-pyrrol-3-yl)methyl)-4,4-dimethyl-1,4-azasilinane]",MIC,[2]; H37RV,5 µg/mL
"Cc1c(CN2CC[Si](C)(C)CC2)cc(-c2ccc(Cl)cc2)n1-c1ccc(C(C)C)cc1 [Compound 19, 1-((5-(4-chlorophenyl)-1-(4-isopropylphenyl)-2-methyl-1H-pyrrol-3-yl)methyl)-4,4-dimethyl-1,4-azasilinane]",MIC,[2]; H37RV,0.04 µg/mL
